Data as given in BindingDB's records for doi:10.7270/Q2TX3CSC (Vanderbilt Screening Center for GPCRs, Ion Channels and …, 2009).

The molecules below were run against T1, Solute carrier family 12 member 5 (Homo sapiens, UniProt Q9H2X9) (assay: KCC2 modulator potency by thallium flux, dose response, cell-based, HEK293 KCC2, FluoZin-2 fluorescence (AID 1736)). Conditions: not given.
T1 sequence (Q9H2X9 whole entry): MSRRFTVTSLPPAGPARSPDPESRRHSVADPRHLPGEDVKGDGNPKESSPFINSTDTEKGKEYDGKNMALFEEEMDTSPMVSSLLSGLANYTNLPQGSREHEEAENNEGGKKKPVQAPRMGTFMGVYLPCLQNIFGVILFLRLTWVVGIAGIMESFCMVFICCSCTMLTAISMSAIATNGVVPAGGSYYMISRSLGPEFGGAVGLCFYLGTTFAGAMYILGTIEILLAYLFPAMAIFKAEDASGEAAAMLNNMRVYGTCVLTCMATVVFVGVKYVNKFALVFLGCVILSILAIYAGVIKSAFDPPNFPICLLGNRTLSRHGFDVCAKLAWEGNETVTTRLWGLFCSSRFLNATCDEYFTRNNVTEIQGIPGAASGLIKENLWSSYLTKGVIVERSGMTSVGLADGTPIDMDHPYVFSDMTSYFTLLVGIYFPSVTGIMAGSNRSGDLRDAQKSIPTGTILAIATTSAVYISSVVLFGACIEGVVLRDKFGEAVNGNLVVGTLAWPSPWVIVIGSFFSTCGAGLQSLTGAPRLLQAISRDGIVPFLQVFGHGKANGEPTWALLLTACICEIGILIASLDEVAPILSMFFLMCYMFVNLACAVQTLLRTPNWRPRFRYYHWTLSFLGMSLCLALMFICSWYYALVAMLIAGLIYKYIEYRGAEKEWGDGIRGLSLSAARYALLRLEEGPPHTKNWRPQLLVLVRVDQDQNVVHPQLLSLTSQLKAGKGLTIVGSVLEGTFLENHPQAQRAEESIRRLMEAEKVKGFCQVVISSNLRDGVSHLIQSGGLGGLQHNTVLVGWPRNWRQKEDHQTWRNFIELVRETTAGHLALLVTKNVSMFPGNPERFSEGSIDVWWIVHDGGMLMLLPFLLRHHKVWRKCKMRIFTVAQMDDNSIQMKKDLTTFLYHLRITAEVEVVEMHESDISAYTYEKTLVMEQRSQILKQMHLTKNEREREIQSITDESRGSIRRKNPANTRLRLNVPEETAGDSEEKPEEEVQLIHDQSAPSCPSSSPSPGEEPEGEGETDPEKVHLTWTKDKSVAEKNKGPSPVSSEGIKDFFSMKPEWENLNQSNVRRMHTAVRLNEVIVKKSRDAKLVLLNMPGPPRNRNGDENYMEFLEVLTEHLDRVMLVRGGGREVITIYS

Compared with `Cc1ccc(-c2n[nH]c(=S)n2NC=CCc2ccccc2[N+](=O)[O-])cc1`, `Cc1ccc(-c2noc(CN3CCN(Cc4ccccc4)CC3)n2)cc1` [1-benzyl-4-{[3-(4-methylphenyl)-1,2,4-oxadiazol-5-yl]methyl}piperazine] is 4.1-fold higher in EC50: 1.62 µM for the first, 6.64 µM for the second.

First: Cc1[nH]c2ccccc2c1Cc1n[nH]c(=S)n1C
Second: Cc1[nH]c2ccccc2c1Cc1nnc(S)o1
The EC50 of the first is 2.1-fold higher: 6.59 µM for the first, 3.21 µM for the second. The second is the more potent here.

First: COc1cc(C=NN(C)c2ccccc2)ccc1O
Second: S=C(NN=Cc1cccc2ccccc12)Nc1cccc(Cl)c1 [1-(3-chlorophenyl)-3-(1-naphthalenylmethylideneamino)thiourea]
The EC50 of the first is 2.2-fold higher: 23.8 µM for the first, 11 µM for the second. The second is the more potent here.

Compared with `O=c1[nH]c2c(s1)C(c1ccccc1)c1c(c(O)n(-c3ccccc3)c1O)S2` (configuration not stated), `NC(=S)NN=C1C(=O)N(Cc2ccccc2)c2ccccc21` [1-[(Z)-[2-oxidanylidene-1-(phenylmethyl)indol-3-ylidene]amino]thiourea] is 4.4-fold higher in EC50: 0.0665 µM for the first, 0.295 µM for the second.

`O=C(CSc1ccccc1C(=O)NCc1ccccc1)NC12CC3CC(CC(C3)C1)C2` and `CC1Cc2ccccc2N1C(=O)CSc1nnnn1Cc1ccccc1` (configuration not stated) [1-(2-methyl-2,3-dihydroindol-1-yl)-2-[[1-(phenylmethyl)-1,2,3,4-tetrazol-5-yl]sulfanyl]ethanone] are within 1.5-fold of each other in EC50: 9.17 µM for the first, 13.6 µM for the second.

First: CC(C)N1C(=O)S/C(=C/c2ccccc2OCc2ccc(C(=O)O)cc2)C1=O
Second: NC(=S)NN=C1C(=O)N(Cc2ccc(F)cc2)c2ccccc21 [1-[(Z)-[1-[(4-fluorophenyl)methyl]-2-oxidanylidene-indol-3-ylidene]amino]thiourea]
The EC50 of the first is 97-fold lower: 1.48 µM for the first, 144 µM for the second.

Going from `Cc1cccc(NC2=NN=C(c3ccccc3F)CS2)c1C` to `Cc1cccc(Nc2nnc(SCC(=O)c3ccc(Br)s3)s2)c1C` [1-(5-bromanylthiophen-2-yl)-2-[[5-[(2,3-dimethylphenyl)amino]-1,3,4-thiadiazol-2-yl]sulfanyl]ethanone], the EC50 falls from 27.9 µM to 1.41 µM (20-fold). The second is the more potent here.

Compared with `O=C1OC(c2ccc(O)cc2)(c2ccc(O)cc2)c2ccccc21`, `S=C(NCc1cccnc1)Nc1ccc(Oc2ccccc2)cc1` [1-(4-phenoxyphenyl)-3-(3-pyridinylmethyl)thiourea] is 3.7-fold higher in EC50: 2.31 µM for the first, 8.45 µM for the second. The first is the more potent here.

Going from `O=C(O)c1cc(-c2ccc(F)cc2F)ccc1O` to `Cc1ccc2oc(-c3ccc(C)c(NC(=S)NC(=O)c4cccs4)c3)nc2c1` [1-[2-Methyl-5-(5-methyl-benzooxazol-2-yl)-phenyl]-3-(thiophene-2-carbonyl)-thiourea], the EC50 falls from 25.7 µM to 2.05 µM (13-fold).

Compared with `CCn1c(=O)n(CC)c2cc(S(=O)(=O)N3CCC(c4ccccc4)CC3)ccc21` [1,3-diethyl-5-(4-phenylpiperidin-1-yl)sulfonyl-benzimidazol-2-one], `O=C(C1CC1)N1CCc2cc(S(=O)(=O)NC3CCN(Cc4ccccc4)CC3)ccc21` [1-[cyclopropyl(oxo)methyl]-N-[1-(phenylmethyl)-4-piperidinyl]-2,3-dihydroindole-5-sulfonamide] is 1.7-fold lower in EC50: 10.8 µM for the first, 6.33 µM for the second. The second is the more potent here.

First: O=C(c1cc2c(s1)-c1ccccc1OC2)N1CCC2(CC1)OCCO2 [1,4-dioxa-8-azaspiro[4.5]decan-8-yl(4H-thieno[3,2-c][1]benzopyran-2-yl)methanone]
Second: O=C(c1ccc(N2CCCCCC2)c([N+](=O)[O-])c1)N1CCc2ccccc21 [1-(4-azepan-1-yl-3-nitrobenzoyl)indoline]
The EC50 of the first is 67-fold higher: 24.9 µM for the first, 0.373 µM for the second. The second is the more potent here.

First: O=C(CSc1nnc(C2CC2)n1Cc1ccccc1)c1cc2ccccc2o1 [1-(1-benzofuran-2-yl)-2-[(4-benzyl-5-cyclopropyl-1,2,4-triazol-3-yl)sulfanyl]ethanone]
Second: C=CCn1c(Cc2cccs2)nnc1SCC(=O)c1ccc2ccccc2c1 [1-(2-naphthalenyl)-2-[[4-prop-2-enyl-5-(thiophen-2-ylmethyl)-1,2,4-triazol-3-yl]thio]ethanone]
The EC50 of the first is 4.8-fold higher: 21.2 µM for the first, 4.42 µM for the second.

First: O=C(CC(C(=O)N1CCc2ccccc21)n1ccnc1)N1CCc2ccccc2C1 (configuration not stated) [1-(2,3-dihydroindol-1-yl)-4-(3,4-dihydro-1H-isoquinolin-2-yl)-2-(1-imidazolyl)butane-1,4-dione]
Second: Cc1oc(-c2ccccc2)nc1C[S+]([O-])CC(=O)N1CCc2ccccc2C1 (configuration not stated) [1-(3,4-dihydro-1H-isoquinolin-2-yl)-2-[(5-methyl-2-phenyl-1,3-oxazol-4-yl)methylsulfinyl]ethanone]
The EC50 of the first is 230-fold higher: 1770 µM for the first, 7.74 µM for the second.

Compared with `CC1Cc2ccccc2N1C(=O)CSc1nnc(CNc2ccccc2)o1` (configuration not stated) [1-(2-Methyl-2,3-dihydro-indol-1-yl)-2-(5-phenylaminomethyl-[1,3,4]oxadiazol-2-ylsulfanyl)-ethanone], `O=C(CSc1nnc(Cc2ccccc2)o1)c1ccc(F)cc1` [1-(4-fluorophenyl)-2-[[5-(phenylmethyl)-1,3,4-oxadiazol-2-yl]sulfanyl]ethanone] is 2.5-fold higher in EC50: 0.941 µM for the first, 2.39 µM for the second.

First: S=C(NCc1ccccc1Cl)Nc1ccccc1Cl [1-(2-chlorobenzyl)-3-(2-chlorophenyl)thiourea]
Second: S=C(NCCc1ccccc1)NN=Cc1cccc(Cl)c1Cl [1-[(2,3-dichlorobenzylidene)amino]-3-phenethyl-thiourea]
The EC50 of the first is 4.3-fold higher: 204 µM for the first, 47.6 µM for the second.

Compared with `CSc1ccccc1N=C(S)Nc1ccc(S(N)(=O)=O)cc1` [1-(2-methylsulfanylphenyl)-3-(4-sulfamoylphenyl)thiourea], `O=S(=O)(NCc1ccccc1)c1ccc(Cl)c(S(=O)(=O)NCc2ccccc2)c1` [1-N,3-N-dibenzyl-4-chlorobenzene-1,3-disulfonamide] is 16-fold lower in EC50: 38.4 µM for the first, 2.34 µM for the second. The second is the more potent here.

First: Cc1cccc(-c2nc(C[S+]([O-])CC(=O)N3CCc4ccccc4C3)c(C)o2)c1 (configuration not stated) [1-(3,4-dihydro-1H-isoquinolin-2-yl)-2-[[5-methyl-2-(3-methylphenyl)-1,3-oxazol-4-yl]methylsulfinyl]ethanone]
Second: COc1ccc(N2C(=S)N=C(Nc3cccc(C)c3)C23CCCCC3)cc1 [1-(4-methoxyphenyl)-4-(3-methylanilino)-1,3-diazaspiro[4.5]dec-3-ene-2-thione]
The EC50 of the first is 110-fold lower: 7.28 µM for the first, 771 µM for the second.

Going from `Cc1c(C(=O)NCCSCc2ccc(F)cc2)cnn1-c1ccc(Cl)cc1` [1-(4-chlorophenyl)-N-[2-[(4-fluorobenzyl)thio]ethyl]-5-methyl-pyrazole-4-carboxamide] to `CCC(c1nnc(SCc2nc3ccccc3s2)n1Cc1ccccc1)N(C)C` (configuration not stated) [1-[5-(1,3-benzothiazol-2-ylmethylsulfanyl)-4-(phenylmethyl)-1,2,4-triazol-3-yl]-N,N-dimethyl-propan-1-amine], the EC50 rises from 6.18 µM to 14.7 µM (2.4-fold). The first is the more potent here.

Going from `Cc1ccc(S(=O)(=O)N2CCC(=O)N(C(COCc3ccccc3)Cc3ccccc3)CC2)cc1` (configuration not stated) [1-(4-methylphenyl)sulfonyl-4-(1-phenyl-3-phenylmethoxy-propan-2-yl)-1,4-diazepan-5-one] to `CC(C)(CN=C(S)NCCc1ccccc1)CN=C(S)NCCc1ccccc1` [1-[2,2-dimethyl-3-(2-phenylethylcarbamothioylamino)propyl]-3-(2-phenylethyl)thiourea], the EC50 rises from 1.69 µM to 165 µM (98-fold).

First: Cc1ccc(Nc2nnc(SCC(=O)c3ccc(Br)s3)s2)c(C)c1 [1-(5-bromanylthiophen-2-yl)-2-[[5-[(2,4-dimethylphenyl)amino]-1,3,4-thiadiazol-2-yl]sulfanyl]ethanone]
Second: Fc1cccc(F)c1C=NNC(=S)Nc1cccnc1 [1-[(2,6-difluorobenzylidene)amino]-3-(3-pyridyl)thiourea]
The EC50 of the first is 3-fold lower: 2.31 µM for the first, 6.93 µM for the second. The first is the more potent here.

For `CN(Cc1ccccc1)c1nc2nonc2nc1N1CCCC(CN2CCCC2=O)C1` (configuration not stated) [1-[(1-{6-[benzyl(methyl)amino][1,2,5]oxadiazolo[3,4-b]pyrazin-5-yl}piperidin-3-yl)methyl]pyrrolidin-2-one], the EC50 was 2.43 µM.

Same assay, conditions: inactive by the depositor's call

Going from `CN(c1ccccc1)c1ccc(/C=C(\CCC(=O)O)c2nc3ccccc3s2)cc1[N+](=O)[O-]` to `CCCn1c(NC(=S)Nc2ccccc2)nc2ccccc21` [1-phenyl-3-(1-propyl-2-benzimidazolyl)thiourea], the EC50 rises from 8.17 µM to 60400 µM (7400-fold). The first is the more potent here.

First: CCOc1ccccc1CNC(=O)C1CCN(c2nc3ccccc3o2)CC1 [1-(1,3-benzoxazol-2-yl)-N-(2-ethoxybenzyl)isonipecotamide]
Second: COc1ccc(-c2nc(C[S+]([O-])CC(=O)N3CCc4ccccc4C3)c(C)o2)cc1 (configuration not stated) [1-(3,4-dihydro-1H-isoquinolin-2-yl)-2-[[2-(4-methoxyphenyl)-5-methyl-1,3-oxazol-4-yl]methylsulfinyl]ethanone]
The EC50 of the first is 15-fold lower: 95.9 µM for the first, 1410 µM for the second.

First: Cc1ccc(Nc2nnc(SCC(=O)c3cc4ccccc4o3)s2)cc1C [1-(1-benzofuran-2-yl)-2-[[5-(3,4-dimethylanilino)-1,3,4-thiadiazol-2-yl]sulfanyl]ethanone]
Second: COc1ccc(C(=O)CSc2nnnn2Cc2ccccc2)cc1 [1-(4-methoxyphenyl)-2-[[1-(phenylmethyl)-1,2,3,4-tetrazol-5-yl]sulfanyl]ethanone]
The EC50 of the first is 20-fold lower: 0.0853 µM for the first, 1.68 µM for the second.
